Positions of bridges follow the written chain, without caps; N, C: chain ends. Non-standard residues stand in square brackets, D forms with d. Residues, ends and D or L forms follow the SMILES beside them. ξ: configuration not given here. Phe(4-SO2NH2) = N[C@@H](Cc1ccc(S(N)(=O)=O)cc1)C(=O)O; Ala(indol-4-yl) = N[C@@H](Cc1cccc2[nH]ccc12)C(=O)O; Phe(4-COOH) = N[C@@H](Cc1ccc(C(=O)O)cc1)C(=O)O; Ala(4-thiazolyl) = N[C@@H](Cc1cscn1)C(=O)O; Phe(3-OMe) = COc1cccc(C[C@H](N)C(=O)O)c1; Ala(2-furyl) = N[C@@H](Cc1ccco1)C(=O)O; Phe(3-Me) = Cc1cccc(C[C@H](N)C(=O)O)c1; Hyp = O=C(O)[C@@H]1C[C@@H](O)CN1; NMeNle = CCCC[C@H](NC)C(=O)O; ξY = NC(Cc1ccc(O)cc1)C(=O)O; NMeA = CN[C@@H](C)C(=O)O; Dap = NC[C@H](N)C(=O)O; ξP = O=C(O)C1CCCN1; Sar = CNCC(=O)O

The target of assay [1] is T1, LK35.2-hPD-L1 cells / PE-labeled PD-1-Ig (Homo sapiens, UniProt Q9NZQ7).
T1 construct: expressed in transfected cells; host or cells: LK35.2 mouse B cell line
The assay is described as follows: LK35.2-hPD-L1 cell binding high-content screening assay. The format is cell-based. The conditions noted are these: cluster symbol; cell line of CBA not given (LK35.2-hPD-L1 or 293T-hPD-L1); read-out: CBA IC50 cluster. In outline:
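Using overnight-cultured LK35.2-hPD-L1 mouse B cells, compound was co-incubated with phycoerythrin-tagged human PD-1-Ig (final 1 nM) at 37 °C for one hour. Unbound label was removed by triple dPBS washing prior to high-content image acquisition and analysis.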

The next assay has as its target T2, Human PD-L1/PD-1 (Homo sapiens, UniProt Q9NZQ7).
T2 construct: made in house; host or cells: HEK293T
The assay is described as follows: HTRF PD-1-Ig/PD-L1-His binding assay (human PD-L1). The conditions noted are these: cluster symbol; read-out: HTRF IC50 cluster. In outline: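 Readout: time-resolved FRET between Eu cryptate-labeled anti-Ig (1 nM final) and APC-labeled anti-His (20 nM final) antibodies. These detect interaction of Fc-fused PD-1 with His-tagged human PD-L1 in dPBS containing 0.1% BSA and 0.05% Tween-20.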

T2 sequence (Q9NZQ7 with tags, fused parts or gaps): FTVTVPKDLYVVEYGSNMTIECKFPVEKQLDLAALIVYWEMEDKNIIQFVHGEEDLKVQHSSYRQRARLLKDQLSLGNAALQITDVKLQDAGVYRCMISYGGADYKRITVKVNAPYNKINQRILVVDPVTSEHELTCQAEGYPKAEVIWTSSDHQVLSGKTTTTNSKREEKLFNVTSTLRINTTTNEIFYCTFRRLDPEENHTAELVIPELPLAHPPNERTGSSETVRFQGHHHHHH
T1 sequence (Q9NZQ7 19-290): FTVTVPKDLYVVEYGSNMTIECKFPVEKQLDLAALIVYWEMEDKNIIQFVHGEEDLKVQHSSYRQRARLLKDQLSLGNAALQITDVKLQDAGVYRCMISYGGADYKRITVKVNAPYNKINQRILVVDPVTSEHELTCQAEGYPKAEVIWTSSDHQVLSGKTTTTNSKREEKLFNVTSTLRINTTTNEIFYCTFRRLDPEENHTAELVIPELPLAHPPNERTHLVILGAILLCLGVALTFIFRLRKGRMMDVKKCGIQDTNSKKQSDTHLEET

With `CCCC[C@H]1C(=O)N(C)[C@@H](CCCC)C(=O)N[C@@H](CCCNC(=N)N)C(=O)N[C@H](C(=O)NCC(N)=O)CSCC(=O)N[C@@H](Cc2ccccc2)C(=O)N(C)[C@@H](C)C(=O)N[C@@H](CC(N)=O)C(=O)N2CCC[C@H]2C(=O)N[C@@H](Cc2cnc[nH]2)C(=O)N[C@@H](CC(C)C)C(=O)N(C)CC(=O)N[C@@H](Cc2cccc(C)c2)C(=O)N[C@@H](CO)C(=O)N[C@@H](Cc2c[nH]c3ccccc23)C(=O)N1C` [Example 1086] ({CH2CO}-F[NMeA]NPHL[Sar][Phe(3-Me)]SW[NMeNle][NMeNle]RCG-NH2; thioether N-14), the IC50 in assay [1] was above 74.3 nM; at Human PD-L1/PD-1, above 30.5 nM.

In the case of `CCCC[C@H]1C(=O)N(C)[C@@H](CCCC)C(=O)N[C@@H](CCCNC(=N)N)C(=O)N[C@H](C(=O)NCC(N)=O)CSCC(=O)N[C@@H](Cc2ccccc2)C(=O)N(C)[C@@H](C)C(=O)N[C@@H](CC(N)=O)C(=O)N2CCC[C@H]2C(=O)N[C@@H](Cc2cnc[nH]2)C(=O)N[C@@H](CC(C)C)C(=O)N2C[C@H](O)C[C@H]2C(=O)N[C@@H](Cc2c[nH]c3ccccc23)C(=O)N[C@@H](CO)C(=O)N[C@@H](Cc2c[nH]c3ccccc23)C(=O)N1C` [Example 1087] ({CH2CO}-F[NMeA]NPHL[Hyp]WSW[NMeNle][NMeNle]RCG-NH2; thioether N-14), the IC50 is 0.158 to 4.71 nM in assay [1] and 0.385 to 6.74 nM on Human PD-L1/PD-1.

For the compound `CCCC[C@H]1C(=O)N(C)[C@@H](CCCC)C(=O)N[C@@H](CCCNC(=N)N)C(=O)N[C@H](C(=O)NCC(N)=O)CSCC(=O)N[C@@H](Cc2ccccc2)C(=O)N(C)[C@@H](C)C(=O)N[C@@H](CC(N)=O)C(=O)N2CCC[C@H]2C(=O)N[C@@H](CO)C(=O)N[C@@H](CC(C)C)C(=O)N(C)CC(=O)N[C@@H](Cc2c[nH]c3ccccc23)C(=O)N[C@@H](CO)C(=O)N[C@@H](Cc2c[nH]c3ccccc23)C(=O)N1C` [Example 1088] ({CH2CO}-F[NMeA]NPSL[Sar]WSW[NMeNle][NMeNle]RCG-NH2; thioether N-14), the IC50 in assay [1] fell in the range of 4.78 to 72.9 nM; on Human PD-L1/PD-1, 6.76 to 30.3 nM.

Take `CCCC[C@H]1C(=O)N(C)[C@@H](CCCC)C(=O)N[C@@H](CCCNC(=N)N)C(=O)N[C@H](C(=O)NCC(N)=O)CSCC(=O)N[C@@H](Cc2ccccc2)C(=O)N(C)[C@@H](C)C(=O)N[C@@H](CCC(N)=O)C(=O)N2CCC[C@H]2C(=O)N[C@@H](Cc2cnc[nH]2)C(=O)N[C@@H](CC(C)C)C(=O)N(C)CC(=O)N[C@@H](Cc2c[nH]c3ccccc23)C(=O)N[C@@H](CO)C(=O)N[C@@H](Cc2c[nH]c3ccccc23)C(=O)N1C` [Example 1089] ({CH2CO}-F[NMeA]QPHL[Sar]WSW[NMeNle][NMeNle]RCG-NH2; thioether N-14): the IC50 in assay [1] is above 74.3 nM; on Human PD-L1/PD-1, above 30.5 nM.

Turning to `CCCC[C@H]1C(=O)N(C)[C@@H](CCCC)C(=O)N[C@@H](CCCNC(=N)N)C(=O)N[C@H](C(=O)NCC(N)=O)CSCC(=O)N[C@@H](Cc2ccc(O)cc2)C(=O)N(C)[C@@H](C)C(=O)N[C@@H](CC(N)=O)C(=O)N2CCC[C@H]2C(=O)N[C@@H](Cc2cnc[nH]2)C(=O)N[C@@H](CCC(=O)O)C(=O)N2CCC[C@H]2C(=O)N[C@@H](Cc2c[nH]c3ccccc23)C(=O)N[C@@H](CO)C(=O)N[C@@H](Cc2c[nH]c3ccccc23)C(=O)N1C` [Example 1090] ({CH2CO}-Y[NMeA]NPHEPWSW[NMeNle][NMeNle]RCG-NH2; thioether N-14), the IC50 in assay [1] is 0.158 to 4.71 nM; on Human PD-L1/PD-1, 0.385 to 6.74 nM.

As for `CCCC[C@H]1C(=O)N(C)[C@@H](CCCC)C(=O)N[C@@H](CCCNC(=N)N)C(=O)N[C@H](C(=O)NCC(N)=O)CSCC(=O)NC(Cc2ccc(O)cc2)C(=O)N(C)[C@@H](C)C(=O)N[C@@H](CC(N)=O)C(=O)N2CCCC2C(=O)N[C@@H](CN)C(=O)N[C@@H](CCC(=O)O)C(=O)N2CCC[C@H]2C(=O)N[C@@H](Cc2c[nH]c3ccccc23)C(=O)N[C@@H](CO)C(=O)N[C@@H](Cc2c[nH]c3ccccc23)C(=O)N1C` (stereo partly shown) [Example 1091] ({CH2CO}-[ξY][NMeA]N[ξP][Dap]EPWSW[NMeNle][NMeNle]RCG-NH2; thioether N-14), the IC50 in assay [1] was in the range of 0.158 to 4.71 nM; on Human PD-L1/PD-1, 0.385 to 6.74 nM.

As to `CCCC[C@H]1C(=O)N(C)[C@@H](CCCC)C(=O)N[C@@H](CCCNC(=N)N)C(=O)N[C@H](C(=O)NCC(N)=O)CSCC(=O)N[C@@H](Cc2ccccc2)C(=O)N(C)[C@@H](C)C(=O)N[C@@H](CC(=O)O)C(=O)N2CCC[C@H]2C(=O)N[C@@H](Cc2cnc[nH]2)C(=O)N[C@@H](CC(C)C)C(=O)N(C)CC(=O)N[C@@H](Cc2c[nH]c3ccccc23)C(=O)N[C@@H](CO)C(=O)N[C@@H](Cc2c[nH]c3ccccc23)C(=O)N1C` [Example 1092] ({CH2CO}-F[NMeA]DPHL[Sar]WSW[NMeNle][NMeNle]RCG-NH2; thioether N-14), the IC50 was 4.78 to 72.9 nM in assay [1] and 6.76 to 30.3 nM at Human PD-L1/PD-1.

As for `CCCC[C@H]1C(=O)N(C)[C@@H](CCCC)C(=O)N[C@@H](CCCNC(=N)N)C(=O)N[C@H](C(=O)NCC(N)=O)CSCC(=O)N[C@@H](Cc2ccc(S(N)(=O)=O)cc2)C(=O)N(C)[C@@H](C)C(=O)N[C@@H](CC(N)=O)C(=O)N2CCC[C@H]2C(=O)N[C@@H](Cc2cnc[nH]2)C(=O)N[C@@H](CC(C)C)C(=O)N(C)CC(=O)N[C@@H](Cc2c[nH]c3ccccc23)C(=O)N[C@@H](CO)C(=O)N[C@@H](Cc2c[nH]c3ccccc23)C(=O)N1C` [Example 1093] ({CH2CO}-[Phe(4-SO2NH2)][NMeA]NPHL[Sar]WSW[NMeNle][NMeNle]RCG-NH2; thioether N-14), the IC50 was above 74.3 nM in assay [1] and above 30.5 nM at Human PD-L1/PD-1.

With `CCCC[C@H]1C(=O)N(C)[C@@H](CCCC)C(=O)N[C@@H](CCCNC(=N)N)C(=O)N[C@H](C(=O)NCC(N)=O)CSCC(=O)N[C@@H](Cc2cccc3[nH]ccc23)C(=O)N(C)[C@@H](C)C(=O)N[C@@H](CC(N)=O)C(=O)N2CCC[C@H]2C(=O)N[C@@H](Cc2cnc[nH]2)C(=O)N[C@@H](CC(C)C)C(=O)N(C)CC(=O)N[C@@H](Cc2c[nH]c3ccccc23)C(=O)N[C@@H](CO)C(=O)N[C@@H](Cc2c[nH]c3ccccc23)C(=O)N1C` [Example 1094] ({CH2CO}-[Ala(indol-4-yl)][NMeA]NPHL[Sar]WSW[NMeNle][NMeNle]RCG-NH2; thioether N-14), the results for the IC50 (in assay [1]; at Human PD-L1/PD-1) were 0.158 to 4.71 nM and 6.76 to 30.3 nM, respectively.

As to `CCCC[C@H]1C(=O)N(C)[C@@H](CCCC)C(=O)N[C@@H](CCCNC(=N)N)C(=O)N[C@H](C(=O)NCC(N)=O)CSCC(=O)N[C@@H](Cc2ccc(C(=O)O)cc2)C(=O)N(C)[C@@H](C)C(=O)N[C@@H](CC(N)=O)C(=O)N2CCC[C@H]2C(=O)N[C@@H](Cc2cnc[nH]2)C(=O)N[C@@H](CC(C)C)C(=O)N(C)CC(=O)N[C@@H](Cc2c[nH]c3ccccc23)C(=O)N[C@@H](CO)C(=O)N[C@@H](Cc2c[nH]c3ccccc23)C(=O)N1C` [Example 1095] ({CH2CO}-[Phe(4-COOH)][NMeA]NPHL[Sar]WSW[NMeNle][NMeNle]RCG-NH2; thioether N-14), the values for the IC50 (in assay [1]; on Human PD-L1/PD-1) were above 74.3 nM and above 30.5 nM, respectively.

For `CCCC[C@H]1C(=O)N(C)[C@@H](CCCC)C(=O)N[C@@H](CCCNC(=N)N)C(=O)N[C@H](C(=O)NCC(N)=O)CSCC(=O)N[C@@H](Cc2cscn2)C(=O)N(C)[C@@H](C)C(=O)N[C@@H](CC(N)=O)C(=O)N2CCC[C@H]2C(=O)N[C@@H](Cc2cnc[nH]2)C(=O)N[C@@H](CC(C)C)C(=O)N(C)CC(=O)N[C@@H](Cc2c[nH]c3ccccc23)C(=O)N[C@@H](CO)C(=O)N[C@@H](Cc2c[nH]c3ccccc23)C(=O)N1C` [Example 1096] ({CH2CO}-[Ala(4-thiazolyl)][NMeA]NPHL[Sar]WSW[NMeNle][NMeNle]RCG-NH2; thioether N-14), the IC50 is above 74.3 nM in assay [1] and above 30.5 nM at Human PD-L1/PD-1.

As to `CCCC[C@H]1C(=O)N(C)[C@@H](CCCC)C(=O)N[C@@H](CCCNC(=N)N)C(=O)N[C@H](C(=O)NCC(N)=O)CSCC(=O)N[C@@H](Cc2cccc(C)c2)C(=O)N(C)[C@@H](C)C(=O)N[C@@H](CC(N)=O)C(=O)N2CCC[C@H]2C(=O)N[C@@H](Cc2cnc[nH]2)C(=O)N[C@@H](CC(C)C)C(=O)N(C)CC(=O)N[C@@H](Cc2c[nH]c3ccccc23)C(=O)N[C@@H](CO)C(=O)N[C@@H](Cc2c[nH]c3ccccc23)C(=O)N1C` [Example 1097] ({CH2CO}-[Phe(3-Me)][NMeA]NPHL[Sar]WSW[NMeNle][NMeNle]RCG-NH2; thioether N-14), the IC50 was in the range of 4.78 to 72.9 nM in assay [1] and 6.76 to 30.3 nM on Human PD-L1/PD-1.

As for `CCCC[C@H]1C(=O)N(C)[C@@H](CCCC)C(=O)N[C@@H](CCCNC(=N)N)C(=O)N[C@H](C(=O)NCC(N)=O)CSCC(=O)N[C@@H](Cc2cccc(OC)c2)C(=O)N(C)[C@@H](C)C(=O)N[C@@H](CC(N)=O)C(=O)N2CCC[C@H]2C(=O)N[C@@H](Cc2cnc[nH]2)C(=O)N[C@@H](CC(C)C)C(=O)N(C)CC(=O)N[C@@H](Cc2c[nH]c3ccccc23)C(=O)N[C@@H](CO)C(=O)N[C@@H](Cc2c[nH]c3ccccc23)C(=O)N1C` [Example 1098] ({CH2CO}-[Phe(3-OMe)][NMeA]NPHL[Sar]WSW[NMeNle][NMeNle]RCG-NH2; thioether N-14), the half-maximal inhibitory concentration (IC50) was 4.78 to 72.9 nM in assay [1] and 6.76 to 30.3 nM on Human PD-L1/PD-1.

As to `CCCC[C@H]1C(=O)N(C)[C@@H](CCCC)C(=O)N[C@@H](CCCNC(=N)N)C(=O)N[C@H](C(=O)NCC(N)=O)CSCC(=O)N[C@@H](Cc2ccco2)C(=O)N(C)[C@@H](C)C(=O)N[C@@H](CC(N)=O)C(=O)N2CCC[C@H]2C(=O)N[C@@H](Cc2cnc[nH]2)C(=O)N[C@@H](CC(C)C)C(=O)N(C)CC(=O)N[C@@H](Cc2c[nH]c3ccccc23)C(=O)N[C@@H](CO)C(=O)N[C@@H](Cc2c[nH]c3ccccc23)C(=O)N1C` [Example 1099] ({CH2CO}-[Ala(2-furyl)][NMeA]NPHL[Sar]WSW[NMeNle][NMeNle]RCG-NH2; thioether N-14), the IC50 in assay [1] is above 74.3 nM; at Human PD-L1/PD-1, above 30.5 nM.

The record behind these values is patent US9850283B2, “Macrocyclic inhibitors of the PD-1/PD-L1 and CD80(B7-1)/PD-L1 protein/protein interactions” (BRISTOL-MYERS SQUIBB COMPANY, priority 2013, dated 2017).
